# Test results: patent publication US20020026053A1, “Novel 3-(substituted) -2- indolinones compounds and use thereof as inhibitors of protein kinase activity” (priority 1997, published 2002)
# Biological target: T1, Met receptor (EGFR/Met chimeric cells, EMR) (Homo sapiens, UniProt P08581)
# T1 construct: expressed in transfected cells; the other entry of the earlier key: EGFR (P00533, Epidermal growth factor receptor)
# Test: Met Autophosphorylation Assay
# Format: biochemical
# Procedure: Met Autophosphorylation Assay
# This assay determines Met tyrosine kinase activity by analyzing Met protein tyrosine kinase levels on the Met receptor.
# a. HNTG (5× stock solution): Dissolve 23.83 g HEPES and 43.83 g NaCl in about 350 ml dH2O. Adjust pH to 7.2 with HCl or NaOH, add 500 ml glycerol and 10 ml Triton X-100, mix, add dH2O to 1 L total volume. To make 1 L of 1× working solution add 200 ml 5× stock solution to 800 ml dH2O, check and adjust pH as necessary, store at 4° C.
# b. PBS (Dulbecco's Phosphate-Buffered Saline), Gibco Cat. # 450-1300EB (1× solution).
# c. Blocking Buffer: in 500 ml dH2O place 100 g BSA, 12.1 g Tris-pH7.5, 58.44 g NaCl and 10 ml Tween-20, dilute to 1 L total volume.
# d. Kinase Buffer: To 500 ml dH2O add 12.1 g TRIS (pH 7.2), 58.4 g NaCl, 40.7 g MgCl2 and 1.9 g EGTA; bring to 1 L total volume with dH2O.
# e. PMSF (Phenylmethylsulfonyl fluoride), Sigma Cat. # P-7626, to 435.5 mg, add 100% ethanol to 25 ml total volume, vortex.
# f. ATP (Bacterial Source), Sigma Cat. # A-7699, store powder at −20° C.; to make up solution for use, dissolve 3.31 mg in 1 ml dH2O.
# g. RC-20H HRPO Conjugated Anti-Phosphotyrosine, Transduction Laboratories Cat. # E120H.
# h. Pierce 1-Step Turbo™ B-ELISA (3,3′,5,5′-tetramethylbenzidine, Pierce Cat. # 34022.
# i. H2SO4, add 1 ml conc.(18 N) to 35 ml dH2O.
# j. TRIS HCL, Fischer Cat. # BP152-5; to 121.14 g of material, add 600 ml MilliQ H2O, adjust pH to 7.5 (or 7.2) with HCl, bring volume to 1 L with MilliQ H2O.
# k. NaCl, Fischer Cat. # S271-10, make up 5M solution.
# m. Na3VO4, Fischer Cat. # S454-50, to 1.8 g material add 80 ml MilliQ H2O, adjust pH to 10.0 with HCl or NaOH, boil in microwave, cool, check pH, repeat procedure until pH stable at 10.0, add MilliQ H2O to 100 ml total volume, make 1 ml aliquots and store at −80° C.
# n. MgCl2, Fischer Cat. # M33-500, make up 1M solution.
# o. HEPES, Fischer Cat. # BP310-500, to 200 ml MilliQ H2O, add 59.6 g material, adjust pH to 7.5, bring volume to 250 ml total, sterile filter.
# p. Albumin, Bovine (BSA), Sigma Cat. # A-4503, to 30 grams material add sterile distilled water to make total volume of 300 ml, store at 4° C.
# q. TBST Buffer: to approx. 900 ml dH2O in a 1 L graduated cylinder add 6.057 g TRIS and 8.766 g NaCl, when dissolved, adjust pH to 7.2 with HCl, add 1.0 ml Triton X-100 and bring to 1 L total volume with dH2O.
# r. Goat Affinity purified antibody Rabbit IgG (whole molecule), Cappel Cat. # 55641.
# s. Anti h-Met (C-28) rabbit polyclonal IgG antibody, Santa Cruz Chemical Cat. # SC-161.
# t. Transiently Transfected EGFR/Met chimeric cells (EMR) (Komada, et al., Oncogene, 8:2381-2390 (1993).
# u. Sodium Carbonate Buffer, ([…], Fischer Cat. # S495) to 10.6 g material add 800 ml MilliQ H2O, when dissolved adjust pH to 9.6 with NaOH, bring up to 1 L total volume with MilliQ H2O, filter, store at 4° C.
# All of the following steps are conducted at room temperature unless it is specifically indicated otherwise. All ELISA plate washing is by rinsing 4× with TBST.
# This procedure can be performed the night before or immediately prior to the start of receptor capture.
# 1. Quick thaw lysates in a 37° C. waterbath with a swirling motion until the last crystals disappear.
# 2. Lyse cell pellet with 1× HNTG containing 1 mM PMSF. Use 3 ml of HNTG per 15 cm dish of cells. Add ½ the calculated HNTG volume, vortex the tube for 1 min., add the remaining amount of HNTG, vortex for another min.
# 3. Balance tubes, centrifuge at 10,000× g for 10 min at 4° C.
# 4. Pool supernatants, remove an aliquot for protein determination.
# 5. Quick freeze pooled sample in dry ice/ethanol bath. This step is performed regardless of whether lysate will be stored overnight or used immediately following protein determination.
# 6. Perform protein determination using standard bicinchoninic acid (BCA) method (BCA Assay Reagent Kit from Pierce Chemical Cat. # 23225).
# 1. Coat Corning 96 well ELISA plates with 5 μg per well Goat anti-Rabbit antibody in Carbonate Buffer for a total well volume of 50 μl. Store overnight at 4° C. […]
# T1 sequence (P08581 with tags, fused parts or gaps): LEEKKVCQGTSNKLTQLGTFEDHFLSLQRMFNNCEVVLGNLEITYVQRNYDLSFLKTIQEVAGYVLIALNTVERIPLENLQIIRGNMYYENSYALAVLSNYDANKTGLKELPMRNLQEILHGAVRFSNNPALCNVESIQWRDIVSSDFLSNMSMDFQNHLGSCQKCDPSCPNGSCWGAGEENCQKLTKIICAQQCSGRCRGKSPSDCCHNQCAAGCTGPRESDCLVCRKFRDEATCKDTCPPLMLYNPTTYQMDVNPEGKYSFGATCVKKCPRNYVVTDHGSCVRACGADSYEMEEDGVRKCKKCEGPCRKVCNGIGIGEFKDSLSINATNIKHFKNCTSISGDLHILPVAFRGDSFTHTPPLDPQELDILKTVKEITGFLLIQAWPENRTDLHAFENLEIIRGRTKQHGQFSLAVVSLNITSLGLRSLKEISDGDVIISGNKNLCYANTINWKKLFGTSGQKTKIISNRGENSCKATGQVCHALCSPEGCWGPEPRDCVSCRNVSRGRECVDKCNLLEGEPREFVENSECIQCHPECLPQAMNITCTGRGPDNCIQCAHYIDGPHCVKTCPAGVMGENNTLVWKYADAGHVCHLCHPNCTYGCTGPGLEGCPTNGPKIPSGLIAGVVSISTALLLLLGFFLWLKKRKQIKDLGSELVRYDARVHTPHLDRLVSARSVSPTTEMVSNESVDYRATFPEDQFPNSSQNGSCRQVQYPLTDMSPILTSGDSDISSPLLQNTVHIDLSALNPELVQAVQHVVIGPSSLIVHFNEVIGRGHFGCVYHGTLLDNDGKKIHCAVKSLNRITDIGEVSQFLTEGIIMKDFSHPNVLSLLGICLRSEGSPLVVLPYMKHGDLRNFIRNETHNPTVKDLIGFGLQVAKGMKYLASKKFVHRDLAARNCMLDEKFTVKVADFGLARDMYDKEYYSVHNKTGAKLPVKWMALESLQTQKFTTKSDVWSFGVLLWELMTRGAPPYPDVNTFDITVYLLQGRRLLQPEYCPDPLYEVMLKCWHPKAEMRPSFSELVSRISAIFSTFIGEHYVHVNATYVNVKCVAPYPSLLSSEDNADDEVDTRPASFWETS
row,Compound,Met Kinase % Inhibition (P.130) [%]
1,Cc1cc(C=C2C(=O)Nc3c(Br)cc(Br)c(C)c32)cc(C)c1OCc1ccccc1 [10733/H07],−1.3
2,COc1cccc(OC)c1C=C1C(=O)Nc2c(Br)cc(Br)c(C)c21 [10728/H03],15.6
3,Cc1c(Br)cc(Br)c2c1C(=C1C(=O)Nc3ccc(F)cc31)C(=O)N2 [10726/H08],71.2
4,Cc1c(Br)cc(Br)c2c1C(=Cc1c[nH]c3ccccc13)C(=O)N2 [10717/H06],30.5
5,COc1ccc2[nH]cc(C=C3C(=O)Nc4c(Br)cc(Br)c(C)c43)c2c1 [10731/H09],12.8
6,COc1ccc(C=C2C(=O)Nc3c(Br)cc(Br)c(C)c32)c2ccccc12 [10729/H03],2.8
